Measured values published in US20210332436A1, “STEM CELL-BASED MULTIPLEX METHODS AND COMPOSITIONS” (MEMORIAL SLOAN-KETTERING CANCER CENTER, priority 2018, published 2021).

Columns and labels:
[1] = system: day 35 MIX30 PFC cultures; test: Multiplex PFC WNT response assay (CHIR99021 treatment of pooled PFC cultures, stem cell proliferation/enrichment readout); assay type: cell-based, human; settings: 3 μM for 10 days, vs untreated
Description: In addition to probing developmental phenotypes related to cell fate specification and proliferation, the present multiplex platform also allows us to evaluate the cell-type specific activity of key molecular pathways. The WNT/βcatenin pathway is a critical regulator of stem cell proliferation and neurogenesis during cortical development (Hirabayashi et al., Development 131, 2791-2801 (2004); Munji et al., J Neurosci 31, 1676-1687 (2011); Chenn, Organogenesis 4, 76-80 (2008)) and is a central node among a network of autism-related genes (Packer, Mol Psychiatry, (2016); Krumm et al., Trends Neurosci 37, 95-105 (2014); Gilman et al., Neuron 70, 898-907 (2011)). It was therefore tested autism lines for the ability to respond to WNT/βcatenin signaling by treating day 35 MIX30 PFC cultures with the GSK3α/β inhibitor CHIR99021 (3 μM) for 10 days, using stem cell proliferation as an initial readout of WNT activity (Kim et al., Nat Neurosci 12, 1390-1397 (2009)) (FIG. 3a). […] Lineage specificity of the WNT-response phenotype was assessed by differentiating the MIX30 library to CD49d^+ cranial neural crest (CNC) precursors ([…] et al., Nature 531, 105-109 (2016)), whose specification is dependent on WNT/β catenin activity (Dorsky et al., Nature 396, 370-373 (1998)) (FIG. 3c, FIGS. 10d-10f). […] DNA was quantified using a fluorometer (Qubit 3.0, Thermo Q33216). […]

[2] = system: Day 20 PFC cultures; test: Single genotype analysis of WNT responsiveness during PFC development (proliferation Ki67/DAPI and cell-cycle re-entry Ki67+EdU+/Ki67+); assay type: cell-based, human
Experimental: FIGS. 15a-15d provide additional data related to WNT assays. FIG. 15a provides PFC WNT response of autism lines relative to a negative control (UMOD). WNT response is measured by relative change in stem cell enrichment versus an untreated control. Red bars indicate significant increases or decreases in WNT response (FDR<0.05). FIG. 15b provides efficiency of neural crest specification relative to a negative control (UMOD). Red bars indicate significant increases or decreases in WNT response (FDR<0.05). FIG. 15c provides schematic of quantification for zebrafish jaw development at 7 dpf. A straight line is drawn from the top of the eyes, and second line is then drawn to the middle of the upper jaw. The angle between the two lines (0) is measured using ImageJ. A cut-off value of −1 s.d. (red line) from the mean (green line) of the no injection group was used to define hypomorphic animals. Graphs show raw data that underlie the hypomorph quantification in FIG. 3e. p<0.0001 for group differences calculated by non-parametric Kruskall-Wallis test, followed by dunn's test for multiple comparisons CTNNB1 p=0.0007, ANKRD11 p=0.0013, CUL3 p=0.0073, KMT2C p=0.0007. dpf, Days post fertilization. FIG. 15d provides a single genotype analysis of WNT responsiveness during PFC development. […] Day 20 PFC cultures were treated with CHIR99021 (0.6 μM) for 2 days or left untreated. At day 22, cultures were pulsed with EdU using the EdU Click-iT system according to manufacturer protocol (ThermoFisher Scientific C10640). Briefly, cells were treated with EdU for 1 hour, dissociated with Accutase for 30 minutes at 37 C, and passaged onto laminin/fibronectin coated plates at a density of 200,000-400,000 cells/cm2 in the presence of ROCK inhibitor (Y-27632, 10 μM, Tocris 1254). Cell were fixed 18 hours later and fixed for immunocytochemistry. ImageJ was used for cell counting. Images were thresholded to define individual cells (particles) and cells were counted using the analyze particle function.

[3] = 5/5 class 1 lines compared to MEL1, 0.6 μM for 2 days

Question: Which results are given for `Cc1c[nH]c(-c2cnc(NCCNc3ccc(C#N)cn3)nc2-c2ccc(Cl)cc2Cl)n1` [CHIR99021]?
Answer: stem cell proliferation (readout of WNT activity) [1]: enhanced stem cell proliferation; proliferation response to CHIR (CHIR/Baseline, Ki67/DAPI) [2, 3]: blunted proliferation response; rates of cell-cycle re-entry (Ki67+EdU+/Ki67+) in response to CHIR [2, 3]: blunted response; rates of cell-cycle re-entry (Ki67+EdU+/Ki67+) in response to CHIR ([2]; control lines, 0.6 μM for 2 days): increased rates of cell-cycle re-entry
